Test results taken from patent publication US20210317102A1, “INHIBITORS OF INTEGRATED STRESS RESPONSE PATHWAY” (Praxis Biotech LLC, priority 2019, published 2021).

Assays:
[1] = system: ATF4 expression, HEK293T cells carrying the ATF4 luciferase reporter; experiment: ATF4 expression inhibition assay (ATF4 luciferase reporter); assay type: cell-based; settings: Homo sapiens, HEK-293T, 100 nM thapsigargin, 3 hours
How it was run: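 Stable HEK293T line expressing firefly luciferase behind the human full-length ATF4 5′UTR; cells stressed with 100 nM thapsigargin alongside compound (1 nM–10 μM) for 3 h at 37 °C. Luminescence normalized to Tg alone (0% inhibition) and untreated cells (100% inhibition) to give % ATF4 inhibition.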

CHO cells = experiment: Protein secretion in a CHO cell-based assay; settings: 1 μM compound 10, media without FBS, 24 h, vs vehicle
Method: CHO cells were maintained at 37° C. and 5% CO2 in DMEM supplemented with 10% fetal bovine serum (FBS), 2 mM L-glutamine, 100 U/ml penicillin, and 100 μg/ml streptomycin. After reaching 80% of confluence, cells were detached and seeded on 6-well plates in complete media, allowed to recover for 48 h. Cells were then washed three times with PBS and treated with compound 10 at […] in 1 mL of media without FBS for 24 h. Treatment with 0.1% DMSO was used as control (vehicle). After 24 h treatment, supernatant (SN) which contains secreted proteins was extracted and protease and phosphatase inhibitors (Roche) were added to each sample. SN were centrifuged at 2,000 g for 10 min to discard any cellular debris and 900 μL SN were transferred to empty microtubes with 400 μL methanol by mixing well. 200 μL of chloroform was added to the mix and then samples were centrifuged at 14,000 g for 2 minutes. Top aqueous layer was discarded by pipetting off and 400 μL methanol is added to each sample by mixing well. Samples were then centrifuged at 17,000 g for 8 minutes and methanol was discarded by pipetting off without disturbing the protein pellet. […] Secreted proteins were analyzed by SDS-PAGE and Coomassie staining. […] Percentage was calculated as the percent relative to protein secretion levels from CHO cells treated with vehicle which correspond to 100%.

`O=C(COc1ccc(Cl)c(F)c1)N[C@H]1CC[C@H](CNC(=O)c2ccc3cc(Cl)ccc3n2)CC1` [Compound 10, trans-6-chloro-N-((4-(2-(4-chloro-3-fluorophenoxy)acetamido)cyclohexyl)methyl)quinoline-2-carboxamide] was tested, and the IC50 [1] was 106 nM and the “Secretion of proteins in CHO cells” value (CHO cells) was “increased secretion of proteins”.
